Source: patent US6858430B1, “Process for cultivation of algae” (Council of Scientific and Industrial Research, priority 2000, dated 2005)

System: pigmented filamentous callus of Eucheuma
Assay: Enhancement of somatic embryogenesis and micro-propagule production in embedded pigmented callus cultures by plant growth regulators
Assay type: cell-based, Eucheuma striatum (=Kappaphycus alvarezii)
Settings: 23° C., one month
Text: The production of micro-propagules clonally through somatic embryogenesis of pigmented callus has been established. The somatic embryogenesis and micro-propagule production may further be enhanced by subculturing thin section of pigmented filamentous callus blocks (2 mm×3 mm×2 mm) in 3 mm thick agar plates (0.3-0.6% agar) with PES medium as embedded cultures. The callus blocks implanted in an agar medium grew rapidly in one month and formed colored spots in an agar with abundantly growing branched filamentous pigmented callus. The newly regenerated filamentous callus from blocks eventually transformed to produce densely pigmented (dark brown colour) micro-colonies similar to somatic embryos in branches of some filaments. […] Transfer of such filamentous callus with somatic embryos from solid (agar plates) medium to liquid PES medium facilitated rapid growth and morphogenesis in micro-propagules.
The production of micro-propagules clonally through somatic embryogenesis of pigmented callus of Eucheuma has been carried out. The somatic embryogenesis and micro-propagule production may be enhanced by subculturing thin section of pigmented filamentous callus blocks (2 mm×3 mm×2 mm) in 3 mm thick agar plates (0.4% agar) with PES medium as embedded cultures at 23° C. under cool white fluorescent fights at 50 μmol photon m^−2s^−1 irradiance with a 12:12 light and dark cycle. […]

| Compound | production of micro-propagules / formation of somatic embryos in pigmented filamentous callus (0.1 mg l-1 each of naphthalenacetic acid and 6-benzylaminopurine combined in 0.4% agar PES medium) | production of micro-propagules / formation of somatic embryos in pigmented filamentous callus (0.1, 1.0 mg l-1 naphthalenacetic acid alone in 0.4% agar PES medium) |
| --- | --- | --- |
| c1ccc(CNc2ncnc3nc[nH]c23)cc1 [6-benzylaminopurine] | further enhanced | – |
| naphthalenacetic acid | – | further enhanced |
